Experimental data as given in EP0755942B1, “N-AMIDINO […]” (DAIICHI PHARMACEUTICAL CO., LTD., priority 1994, dated 1995).

How the values were obtained:
Mice = test: analgesic activity by pressure stimulation method (tail base); type: in vivo; conditions: dose that induced 50 percent of % of MPE; for ED50(mg/kg) s.c.: subcutaneous administration (skin in the backs); for ED50(mg/kg) p.o.: oral administration
Description: The analgesic activities of the peptide derivatives of the present invention were evaluated by pressure stimulation method. Mice were subjected to pressure stimulation at the bases of their tails at the rate of 10 mmHg/second. […] For the experiments, mice that normally responded to a pressure of 40-50 mmHg were used. The maximum stimulating pressure was 100 mmHg. Analgesic activity was calculated as percent of maximum possible effect (% of MPE) according to the equation: % of MPE =(Pt - Po)/(Pc - Po)× 100 [formula] wherein Po is the pain reaction threshold before the administration of a drug; Pt is the pain reaction threshold "t" minutes after the administration of the drug; and Pc is the maximum stimulating pressure. ED50 values were calculated based on dose response curves as doses that induced 50 percent of % of MPE and analgesic activities of the drugs were compared.

[1] = intraventricular administration, relative to morphine; cited from earlier work
[2] = cited from earlier work

With `N=C(N)NCCC[C@@H](NC(=O)[C@H](Cc1ccc(O)cc1)NC(=N)N)C(=O)N[C@@H](Cc1ccccc1)C(=O)NCCCO` [H2NC(NH)-Tyr-D-Arg-Phe-NHCH2CH2CH2OH] the “ED50(mg/kg) s.c.” value (Mice) was 0.88 mg/kg.

In the case of `N=C(N)NCCC[C@@H](NC(=O)[C@H](Cc1ccc(O)cc1)NC(=N)N)C(=O)N[C@@H](Cc1ccccc1)C(=O)NCCC(=O)O` [H2NC(NH)-Tyr-D-Arg-Phe-NHCH2CH2COOH], the “ED50(mg/kg) p.o.” value (Mice) is reported as 5.8 mg/kg and the “ED50(mg/kg) s.c.” value (Mice) is reported as 0.14 mg/kg.

With `CN(C)C(=O)[C@H](Cc1ccccc1)NC(=O)[C@@H](CCCNC(=N)N)NC(=O)[C@H](Cc1ccc(O)cc1)NC(=N)N` [H2NC(NH)-Tyr-(D)Arg-Phe-N(Me)2] the “ED50(mg/kg) s.c.” value (Mice) was 1.22 mg/kg.

With `CN(CCC(=O)O)C(=O)[C@H](Cc1ccccc1)NC(=O)[C@@H](CCCNC(=N)N)NC(=O)[C@H](Cc1ccc(O)cc1)NC(=N)N` [H2NC(NH)-Tyr-D-Arg-Phe-N(CH3)CH2CH2COOH] the “ED50(mg/kg) p.o.” value (Mice) was 6.6 mg/kg and the “ED50(mg/kg) s.c.” value (Mice) was 0.10 mg/kg.

For `COC(=O)CCN(C)C(=O)[C@H](Cc1ccccc1)NC(=O)[C@@H](CCCNC(=N)N)NC(=O)[C@H](Cc1ccc(O)cc1)NC(=N)N` [H2NC(NH)-Tyr-D-Arg-Phe-N(CH3)CH2CH2COOCH3], the “ED50(mg/kg) p.o.” value (Mice) was 8.9 mg/kg and the “ED50(mg/kg) s.c.” value (Mice) was 0.12 mg/kg.

In the case of Dermorphine, the “analgesic effect higher than morphine” value [1] is given as “about 1,000 fold”.

For Tyr-D-Arg^2-Phe-Sarcosine [TAPS], the “potency relative to dermorphin” value ([2]; opioid effects such as analgesia, relative to dermorphin) is given as “about 6 times” and the “duration of sufficient analgesic effects” value ([2]; oral administration) is given as 3 h.

For `CCN(CCC(=O)O)C(=O)[C@H](Cc1ccccc1)NC(=O)[C@@H](CCCNC(=N)N)NC(=O)[C@H](Cc1ccc(O)cc1)NC(=N)N` [H2NC(NH)-Tyr-D-Arg-Phe-N(CH2CH3)CH2CH2COOH], the “ED50(mg/kg) p.o.” value (Mice) was 16.0 mg/kg and the “ED50(mg/kg) s.c.” value (Mice) was 0.15 mg/kg.

In the case of `N=C(N)NCCC[C@@H](NC(=O)[C@H](Cc1ccc(O)cc1)NC(=N)N)C(=O)N[C@@H](Cc1ccccc1)C(=O)NCCC(N)=O` [H2NC(NH)-Tyr-D-Arg-Phe-NHCH2CH2CONH2], the “ED50(mg/kg) p.o.” value (Mice) is reported as 10.7 mg/kg and the “ED50(mg/kg) s.c.” value (Mice) is reported as 0.13 mg/kg.

With `CN(CC(=O)O)C(=O)[C@H](Cc1ccccc1)NC(=O)[C@@H](CCCNC(=N)N)NC(=O)[C@H](Cc1ccc(O)cc1)NC(=N)N` [H2NC(NH)-Tyr-D-Arg-Phe-N(CH3)CH2COOH] the “ED50(mg/kg) p.o.” value (Mice) was 17.8 mg/kg and the “ED50(mg/kg) s.c.” value (Mice) was 0.39 mg/kg.

In the case of `CN(CC(N)=O)C(=O)[C@H](Cc1ccccc1)NC(=O)[C@@H](CCCNC(=N)N)NC(=O)[C@H](Cc1ccc(O)cc1)NC(=N)N` [H2NC(NH)-Tyr-(D)Arg-Phe-N(CH3)CH2CONH2], the “ED50(mg/kg) s.c.” value (Mice) is reported as 0.27 mg/kg.
